Results reported in patent US9260417B2, “Therapeutic methods and compositions involving allosteric kinase inhibition” (AMITECH THERAPEUTIC SOLUTIONS, INC., priority 2010, dated 2016).

Experiments:
[1] = target: EGFR L858R (Homo sapiens (Human), UniProt P00533, L858R); assay: In vitro kinase panel (SelectScreen); type: biochemical
Experimental: (§2) In vitro kinase screen and competitive binding assay. […] 11-point Kd curves were determined for hits identified during the initial screen.

[2] = target: KDR (VEGFR2) (Homo sapiens (Human), UniProt P35968); assay: In vitro kinase panel (SelectScreen); type: biochemical
Experimental: as §2

[3] = target: PDGFRA (Homo sapiens (Human), UniProt P16234); assay: KINOMEscan competitive binding assay
Experimental: (§3) In vitro kinase screen and competitive binding assay. […] For the competitive binding assay, test compounds were screened at 10 μM against 70 diverse kinase targets for competitive binding using the KINOMEscan™ technology (Ambit Biosciences) (Karaman, et al. (2008) Nature biotechnology 26:127-132). 11-point Kd curves were determined for hits identified during the initial screen.

[4] = target: BRAF (Homo sapiens (Human), UniProt P15056); assay: In vitro kinase panel (SelectScreen); type: biochemical
Experimental: as §2

[5] = test system: HUVECs co-cultured with hTERT-human hepatic stellate cells; assay: Stellate cell/endothelial cell co-culture tube formation assay; type: cell-based; conditions: […] 6, […] 3, 1.0 μM imatinib, 0.5 μM GW 5074
Experimental: One representative panel from 3 independent experiments is shown. […] Scale bar=200 μm.
The stellate cells were washed in PBS and mixed with early passage HUVECs (p<5) at a ratio of 1:4 and mixed into a 3.75 mg/ml Type 1 Rat tail collagen matrix (BD Biosciences) in M-199 media. 30 μl of this mixture was seeded onto each well of a half-area 96 well plate (Corning). The collagen was allowed to polymerize for 30 min at 37° C. and […] of complete EBM-2 media was added to each well. Various inhibitors were serially diluted in DMSO and subsequently added to duplicate wells 6 h post cell seeding. […] The endothelial tubes and the stellate cells were imaged at 48 h with a 10× objective on a confocal microscope. Images were collected across five fields per well.
Stellate cell/endothelial cell tube formation assay and mouse matrigel model. This assay was performed as described in the SI Methods. The stellate cells were a gift from Dr. David Brenner and previously described (Schnabl, et al. (2002) Laboratory investigation; a journal of technical methods and pathology 82:323-333). […] The mouse matrigel model was performed as previously described (Eliceiri, et al. (1999) Molecular cell 4:915-924 5) and further details of immunohistochemistry and animal dosing can be found herein.
To validate the findings of Example 10, a co-culture angiogenesis assay was utilized to evaluate similar combinations of PDGFR and RAF inhibitors. In the assay, HUVECs are mixed with hepatic stellate cells (a pericyte found in the perisinusoidal space of the liver) in a 3D-collagen gel. The co-culture produced endothelial tubes with pericyte contacts (from the stellate cells) that can be imaged and quantified as shown in FIGS. 4B and C.

[6] = target: T1, ABL1 (Homo sapiens (Human), UniProt P00519); assay: In vitro kinase panel (SelectScreen); type: biochemical
Experimental: as §2

[7] = test system: MDA-MB231; assay: Tumor cell viability; type: cell-based, human; conditions: Breast AC MDA-MB231, B-RAF/Ras
Experimental: (§1) For XTT assays, cells were grown in 96-well plates overnight and all assays were conducted in growth medium will full serum and additives. Compounds were serially diluted in DMSO and then further diluted into the medium to give the appropriate concentration while minimizing precipitation associated with serial diluting in medium alone Inhibitors were added for 72 h and cell viability was quantified at 450 nm after the addition of 1 mg/ml XTT solution (Sigma-Aldrich) in phenol-red free DMEM medium containing […] (Sigma-Aldrich). Dose-response curves were plotted using GraphPad Prism software and EC50s were calculated using this program.

[8] = test system: HCT116; assay: Tumor cell viability; type: cell-based, human; conditions: Colon HCT116, K-Ras
Experimental: as §1

[9] = target: PAK1 (Homo sapiens (Human), UniProt Q13153); assay: KINOMEscan competitive binding assay; conditions: 10 uM
Experimental: (§4) For the competitive binding assay, test compounds were screened at 10 μM against 70 diverse kinase targets for competitive binding using the KINOMEscan™ technology (Ambit Biosciences) (Karaman, et al. (2008) Nature biotechnology 26:127-132). 11-point Kd curves were determined for hits identified during the initial screen.

[10] = target: SRC (Homo sapiens (Human), UniProt P12931); assay: KINOMEscan competitive binding assay; conditions: 10 uM
[11] = test system: 1205 Lu melanoma cells; assay: 1205 Lu melanoma subcutaneous xenograft; type: in vivo, mice; conditions: 50 mg/kg, bid, ip for 2 weeks
Experimental: Human 1205 Lu melanoma cells, which express BRAF V600E, were subcutaneously implanted into the flank of 6-8 week old female Nu/Nu mice. The tumor cells were trypsinized and resuspendend in 1:1 PBS:growth factor depeleted Matrigel (BD Biosciences) and […] containing 1×10^6 cells was injected into the flank. An excess of mice bearing tumors were utilized and groups of 6 animals were chosen based on the symmetry of the tumor and randomized to give each group an average of 50 mm^3 (day 10). […] The vehicle was 10% HS-15 (known as Solutol, BASF, Inc.) in 3.33% dextrose. Tumor growth was monitored by measuring the tumor length and width with precision calipers every 3 days and calculating tumor volume using the following formula: Tumor volume=0.5*(length)*(width)^2, provided the smaller measurement was utilized as the length.

[12] = target: PKAC-alpha (Homo sapiens (Human), UniProt P17612); assay: KINOMEscan competitive binding assay; conditions: 10 uM
[13] = target: T1, ABL1; assay: KINOMEscan competitive binding assay; conditions: 10 uM
Experimental: as §4

[14] = target: p38-alpha (Homo sapiens (Human), UniProt Q16539); assay: KINOMEscan competitive binding assay; conditions: 10 uM
Experimental: as §4

[15] = target: PRKCE (Homo sapiens (Human), UniProt Q02156); assay: KINOMEscan competitive binding assay; conditions: 10 uM
[16] = target: CRAF S338 (Mus musculus (Mouse), UniProt Q99N57); assay: CRAF S338 phosphorylation in R40P cells (Western); type: cell-based; conditions: 12 h, sorafenib 5 μM, compound 6 5, 2.5, 1.25 μM
Experimental: R40P cells are derived from a spontaneous pancreatic adenocarcinoma mouse model which expresses K-ras^G12D while p16/Ink4a/ARF is lost. […] At this time the cells were lysed and protein levels were quantified by BCA analysis. The lysates were then loaded on an SDS-PAGE gel and transferred to nitrocellulose for Western blotting. Immunoblotting was performed with the following antibodies: pMEK1/2 S217/S221 (Cell Signaling), pCRAF S338 (Cell Signaling), and total CRAF (BD Biosciences). Chemilluminescence was used for detection on film.

[17] = target: CDC2L2 (Homo sapiens (Human), UniProt Q9UQ88); assay: KINOMEscan competitive binding assay; conditions: 10 uM
[18] = test system: A431; assay: Tumor cell viability; type: cell-based; conditions: Epithelial Carcinoma A431, HER1
Experimental: as §1

[19] = test system: M21; assay: Tumor cell viability; type: cell-based; conditions: Melanoma M21
Experimental: as §1

[20] = test system: M21L; assay: Tumor cell viability; type: cell-based; conditions: Melanoma M21L
Experimental: as §1

[21] = test system: CT26; assay: Tumor cell viability; type: cell-based; conditions: Colon Carcinoma CT26
Experimental: as §1

[22] = target: VEGFR2 (Homo sapiens (Human), UniProt P35968); assay: KINOMEscan competitive binding assay; conditions: 10 uM
Experimental: as §3

SMILES: Nc1cc(Oc2ccc(-c3nnc(Nc4cccc(C(F)(F)F)c4)[nH]3)cc2)ncn1 [Compound 3]
- % Inhibition at 10 μM [1]: −3%
- % Inhibition at 10 μM [2]: 31%
- Kd ([3]; PDGFRα): 32 nM
- % Inhibition at 10 μM [4]: 17%
- endothelial tube formation and % pericyte-covered tube length [5]: did not affect endothelial tube formation
- % Inhibition at 10 μM [6]: 4%

SMILES: CSc1nc(N)cc(Oc2ccc(-c3nnc(Nc4cccc(C(F)(F)F)c4)[nH]3)cc2)n1 [Compound 6]
- EC50 [7]: 480 nM
- EC50 [8]: 400 nM
- % Inhibition at 10 μM [1]: −10%
- % Control [9]: 100%
- % Control [10]: 90%
- melanoma tumor growth [11]: suppresses melanoma tumor growth in vivo
- % Control [12]: 100%
- % Control [13]: 100%
- % Control [14]: 100%
- % Inhibition at 10 μM [2]: 16%
- % Control [15]: 91%
- % Control ([3]; 10 uM, PDGFRA): 0.25%
- phosphorylation on CRAF S338 [16]: does not promote this increase
- % Inhibition at 10 μM [4]: −1%
- % Control [17]: 83%
- EC50 [18]: 430 nM
- EC50 [19]: 450 nM
- EC50 [20]: 420 nM
- EC50 [21]: 710 nM
- endothelial tube formation and % pericyte-covered tube length [5]: dramatic reduction
- % Inhibition at 10 μM [6]: 3%
- % Control [22]: 80%

SMILES: CNC(=O)c1cc(Oc2ccc(NC(=O)Nc3ccc(Cl)c(C(F)(F)F)c3)cc2)ccn1 [sorafenib, reference compound]
- EC50 ([7]; Homo sapiens, MDA-MB-231): > 10000 nM
- EC50 ([8]; Homo sapiens, HCT-116): 8210 nM
- phosphorylation on CRAF S338 [16]: induces an increase
